{"source": "paper PMC11067372", "about": "“Evaluation of the antiplasmodial efficacy of synthetic 2,5-diphenyloxazole analogs of compounds naturally derived from Oxytropis lanata” (International Journal for Parasitology: Drugs and Drug …, 2024)", "key": {"[1]": {"assay": "Hemolysis rate", "type": "cell-based", "conditions": "erythrocytes (red blood cells)"}, "[2]": {"assay": "In vitro toxicity to human cells (cell viability assay)", "type": "cell-based", "conditions": "human foreskin fibroblasts (HFFs), average ± SD, three independent experiments", "procedure": "HFF cells are selected for cytotoxicity testing in this study, providing a physiologically relevant model for the evaluation of drug interactions with human cells. […] This designation makes them a suitable model for the investigation of cellular processes and their sensitivity to toxic substances, which is crucial for the early identification of potential adverse effects of drugs during the development process.\nThe IC50 or CC50 values were determined from three independent experiments by plotting the logarithmic concentration of the compound against the percent parasite inhibition or cell growth inhibition, respectively. Nonlinear regression analysis was conducted using GraphPad Prism 10 (GraphPad Software, Inc., La Jolla, CA, USA). Comparisons between groups were evaluated using either one-way or two-way ANOVA followed by Tukey's or Fisher's multiple comparisons tests. A p-value of <0.05 was considered to indicate statistical significance and is denoted by an asterisk or a symbol. The meaning of each symbol is specified in the corresponding figure legend alongside the name of the employed test."}, "[3]": {"test_system": "P. falciparum 3D7", "assay": "IC50 speed assay (24, 48, 72 h)", "type": "cell-based, Plasmodium falciparum", "conditions": "P. falciparum 3D7; for Speed of action (IC50 speed assay): IC50 at 24, 48, 72 h compared; for IC50: Plasmodium falciparum", "procedure": "The D-sorbitol method (CAS: 50-70-4, Wako, Osaka, Japan) was employed to synchronize parasites, resulting in the attainment of ≥90% ring-stage parasites. These synchronized parasites were then utilized for the experiments within a 2-h window. The assay was performed as follows. First, 50 μL of synchronized parasites with 0.5% parasitemia and 2% hematocrit were added to individual wells of a 96-well plate. Then, 50 μL of the test compounds was introduced to each well. […] Wells containing only test compounds and erythrocytes were included for background correction. […] After the designated incubation time, 100 μL of lysis buffer containing 0.02% (v/v) SYBR Green I was added to each well, the contents of the well were mixed by pipetting, and the plate was incubated in the dark at room temperature for 2 h. […] This assay was repeated four times at each concentration, and the resulting inhibitory values represent the average from three independent trials."}, "[4]": {"test_system": "P. yoelii 17XNL", "type": "in vivo", "conditions": "C57BL/6 mice, P. yoelii 17XNL; for Parasitemia compared to the untreated control group: 20 mg/kg daily over 10 days; for Body weight or hematocrit levels / Mortality / Peak of parasitemia, trial 1 / Peak of parasitemia, trial 2: 20 mg/kg i.p. once daily for ten days; for Peak of parasitemia, trial 1: untreated 21.7%; for Peak of parasitemia, trial 2: untreated 28.3%", "procedure": "Male C57BL/6 mice, aged eight weeks, were obtained from Japan CLEA (Tokyo, Japan) and housed with six per cage in each group. These mice were kept under conditions of 24 °C, 50% relative humidity, and a light-dark cycle of 8 a.m. to 8 p.m. Access to drinking water and food (CLEA Rodent Diet CE-2; Japan CLEA, Tokyo, Japan) was unrestricted. Prior to experimentation, P. yoelii 17XNL was recovered from cryopreserved erythrocyte stocks via passage in mice. […]. Parasitemia levels were evaluated […] by collecting 2 μL of blood from the mouse tail for thin blood smear preparation. Treatment was initiated upon reaching a parasitemia level of 1%. […]. Parasitemia in infected mice was observed daily by preparing Giemsa-stained thin blood smears (up to 30 dpi). Hematocrit levels were measured every other day using a Celltac-α MEK-6550 (Nihon Kohden, Tokyo, Japan), with 10 μL of blood collected from the mouse tail for each assessment. The animals were handled and treated in accordance with the Guide for the Care and Use of Laboratory Animals by the Ministry of Education, Culture, Sports, Science, and Technology, Japan. Ethical permission for the animal experiment protocols was secured under permit numbers 21–35 and 23–90 from the ethical committee of Obihiro University of Agriculture and Veterinary Medicine.\nThe median point within this range was selected to maintain a balance between efficacy and safety. Furthermore, a modified Peter's suppression test was utilized to assess the efficacy of antimalarial drugs ([Ager, 1984]; [Peters et al., 1975]). The treatment and observation period were initially set for 4 days. […] […]. […] These findings highlight the effect of the 20 mg/kg/day dosage of Compounds 31 and 32 in reducing parasitemia without causing side effects."}, "[5]": {"test_system": "P. falciparum 3D7", "assay": "Stage-specific microscopy examination (ring, trophozoite, schizont)", "type": "cell-based, Plasmodium falciparum", "conditions": "for Inhibition of the life cycle at 10- and 1-fold IC50: 24 h; for Parasite morphology after 24 h treatment: ring, trophozoite, schizont stages, artemisinin and chloroquine at all concentrations, Compounds 31 and 32 at 100 times IC50", "procedure": "To ensure uniformity, the parasites underwent a rigorous synchronization process using a two-step sorbitol treatment procedure. This synchronized parasite population was harnessed within a 2-h window for the ring stage, 8–10 h for the trophozoite stage, and 24–26 h for the schizont stage. Subsequent to sorbitol treatment, early trophozoites could be obtained within 6–8 h after the initial sorbitol treatment (within 20 h of development), while early schizonts could be obtained after an additional 16 h of incubation (within 36 h of development). Beyond 36 h, the schizonts mature, causing the rupture of red blood cells (RBCs) and the consequent release of merozoites, which promptly infect new RBCs.\nThe negative control group consisted of cultures treated solely with complete medium and was designated the no treatment (NT) group. This analysis was repeated three times at each concentration. Following a 24-h incubation period, the culture in a 96-well plate was centrifuged at 1300 g for 5 min to settle down the iRBC; then, the supernatants were removed, and the iRBCs were washed with fresh media at the same volume as the initial culture. The centrifugation and washing were repeated 3 times, allowing the compound to be diluted by approximately 1000 times. Subsequently, thin blood smears from each treatment group were prepared using 1 μL of settled iRBCs. The proportion of parasites affected by the drug, including those with both abnormal and retained morphologies, was calculated by examining 100 parasites and counting the number displaying irregular development. Subsequently, the number of abnormal parasites was divided by the total count and then multiplied by 100 to obtain a percentage. The parameters used to define normal and abnormal morphologies can be found in Table S3 and Fig. S1."}, "[6]": {"conditions": "24 h incubation, read-out: IC50 24 h"}, "[7]": {"conditions": "48 h incubation, read-out: IC50 48 h"}, "[8]": {"conditions": "72 h incubation, read-out: IC50 72 h"}}, "note": "Read-outs that look alike come from different tables or passages of the source.", "data": [{"smiles": "COc1cccc(-c2ncc(-c3ccccc3O)o2)c1OC", "note": "[Compound 31, 2-(2′,3′-dimethoxyphenyl)-5-(2″-hydroxyphenyl)oxazole]", "values": [{"measurement": "hemolysis at 1000 µM", "setting": "[1]", "value": "< 3", "unit": "%"}, {"measurement": "CC50", "setting": "[2]", "value": "> 336", "unit": "µM"}, {"measurement": "Speed of action (IC50 speed assay)", "setting": "[3]", "value": "slow-acting"}, {"measurement": "IC50", "setting": "[3]; [6]", "value": "45.2 ± 10.6", "unit": "µM"}, {"measurement": "IC50", "setting": "[3]; [7]", "value": "18.8 ± 1.86", "unit": "µM"}, {"measurement": "IC50", "setting": "[3]; [8]", "value": "8.37 ± 1.28", "unit": "µM"}, {"measurement": "Parasitemia compared to the untreated control group", "setting": "[4]", "value": "significant reduction in parasitemia"}, {"measurement": "Body weight or hematocrit levels", "setting": "[4]", "value": "nor were reductions in body weight or hematocrit levels observed"}, {"measurement": "Mortality", "setting": "[4]", "value": "no instances of mortality"}, {"measurement": "Peak of parasitemia, trial 1", "setting": "[4]", "value": 12.7, "unit": "%"}, {"measurement": "Peak of parasitemia, trial 2", "setting": "[4]", "value": 15.8, "unit": "%"}, {"measurement": "Inhibition of the life cycle at 10- and 1-fold IC50", "setting": "[5]", "value": "only partial inhibition of the life cycle"}, {"measurement": "Parasite morphology after 24 h treatment", "setting": "[5]", "value": "abnormal phenotype of ring-stage parasites"}]}, {"smiles": "COc1cccc(-c2ncc(-c3ccccc3OCc3ccccc3)o2)c1OC", "note": "[Compound 32, 2-(2′,3′-dimethoxyphenyl)-5-(2″-benzyloxyphenyl)oxazole]", "values": [{"measurement": "hemolysis at 1000 µM", "setting": "[1]", "value": "< 3", "unit": "%"}, {"measurement": "CC50", "setting": "[2]", "value": "> 258", "unit": "µM"}, {"measurement": "Speed of action (IC50 speed assay)", "setting": "[3]", "value": "slow-acting"}, {"measurement": "IC50", "setting": "[3]; [6]", "value": "31.2 ± 4.13", "unit": "µM"}, {"measurement": "IC50", "setting": "[3]; [7]", "value": "33.4 ± 2.67", "unit": "µM"}, {"measurement": "IC50", "setting": "[3]; [8]", "value": "6.25 ± 1.39", "unit": "µM"}, {"measurement": "Parasitemia compared to the untreated control group", "setting": "[4]", "value": "significant reduction in parasitemia"}, {"measurement": "Body weight or hematocrit levels", "setting": "[4]", "value": "nor were reductions in body weight or hematocrit levels observed"}, {"measurement": "Mortality", "setting": "[4]", "value": "no instances of mortality"}, {"measurement": "Peak of parasitemia, trial 1", "setting": "[4]", "value": 12.7, "unit": "%"}, {"measurement": "Peak of parasitemia, trial 2", "setting": "[4]", "value": 14.0, "unit": "%"}, {"measurement": "Inhibition of the life cycle at 10- and 1-fold IC50", "setting": "[5]", "value": "only partial inhibition of the life cycle"}, {"measurement": "Parasite morphology after 24 h treatment", "setting": "[5]", "value": "abnormal phenotype of ring-stage parasites"}]}]}
